Read-outs that look alike come from different tables or passages of the source.
How the values were obtained:
K-ras G12D = K-ras G12D (Homo sapiens, UniProt P01116, G12D); assay: G-LISA Ras activation assay, 293H cells transfected with G12D mutant; type: cell-based; settings: 1 hour treatment
Protocol: (§1) 293H cells were seeded in 6-wells at 0.6×10^6 cells per well and transfected next day with 5 μg of Ras wild-type, or G12C, G12D or G12V mutant DNA plasmid vector using transfection reagent Lipofectamine 3000. Next day cells were treated with 3.125-50 μM of Ras compounds for 1 hour. Wild-type transfected cells were subsequently treated with 100 ng/ml EGF for 2 minutes. Cells were washed once in ice-cold PBS, lysed in complete lysis buffer on ice, and processed by G-LISA according to Cytoskeleton protocol.
(§2) In-cell selectivity of the compounds presented herein against a specific K-ras mutant form can also be tested as shown in the following exemplary experiment. 293H cells were seeded in 6-wells and transfected next day with 5 μg of Ras wild-type, or G12C, G12D or G12V mutant DNA plasmid vector. Next day cells were treated with 3.125-50 μM of Ras compounds for 1 hour. Wild-type transfected cells were subsequently treated with 100 ng/ml EGF for 2 minutes. Cells were washed once in ice-cold PBS, lysed in complete lysis buffer on ice, and processed by G-LISA according to Cytoskeleton protocol. FIG. 1 depicts exemplary results.
as §1, with “In still further experiments, the inventors tested selected compounds in a G-LISA assay to compare IC50 values for wild-type and various mutant K-Ras (G12D, G12V) using the following general protocol: 293H” for “293H”

K-ras G12D (GTP) = K-ras G12D (GTP) (Homo sapiens, UniProt P01116, G12D); assay: SPR assay (surface plasmon resonance); type: binding; settings: 25° C., 8% DMSO
Protocol: (§3) Selected compounds were also tested for selective binding to wild type and mutant forms of K-ras in the active and non-active state using surface plasmon resonance, and exemplary results are shown in Table 4.
(§4) The running buffer in all surface plasmon resonance experiments was 10 mM HEPES pH 7.4, 150 mM NaCl, 0.1% (v/v) Tween-20, 1 mM MgCl2, 8% DMSO. Experiments were carried out on the SensiQ Pioneer optical biosensor. The flow rate was set at 50 μL/min and the temperature was 25° C. kRAS protein was immobilized to the Nickel-NTA charged surface of the SensiQ HisCap chip (sensiqtech.com) giving a yield of 4000 RU. Small molecules were prepared in 100% DMSO and further diluted to 8% DMSO in running buffer. The small molecules were injected using the Taylor diffusion gradient injection mode (OneStep®, see e.g., Evaluation of Taylor dispersion injections: Determining kinetic/affinity interaction constants and diffusion coefficients in label-free biosensing, John G. Quinn, Analytical Biochemistry (2011)). Buffer blanks were injected for double referencing purposes. Data processing and model fitting were performed using Qdat.

K-ras G12V (GTP) = K-ras G12V (GTP) (Homo sapiens, UniProt P01116, G12V); assay: SPR assay (surface plasmon resonance); type: binding; settings: 25° C., 8% DMSO
Protocol: as §3, §4

K-Ras wild-type = K-Ras wild-type (Homo sapiens, UniProt P01116); assay: G-LISA Ras activation assay, 293H cells transfected with Ras wild-type, EGF-stimulated; type: cell-based; settings: 1 hour treatment, 100 ng/ml EGF
Protocol: as §1, §2
as §1, with “In still further experiments, the inventors tested selected compounds in a G-LISA assay to compare IC50 values for wild-type and various mutant K-Ras (G12D, G12V) using the following general protocol: 293H” for “293H”

Panc10.05 (G12D) cells = assay: 72 hr cell viability (CellTiterBlue); type: cell-based; settings: GI50, 72 hr
Protocol: (§5) Viability assays were performed on exemplary compounds and Table 2 below lists exemplary results for selected compounds tested on wild type (Ishikawa) and various K-ras mutants (Panc1-G12D; Panc10.05-G12D; HCT116-G13D).
(§6) Cells are counted and seeded at 1000 cells/36 ul medium/well into 384-well microplates. Cells are returned to 37° C. CO2 incubator for 18 hr. Drug is made as 200× in DMSO and diluted into medium to 10×. To each well is added 4 ul 10× drug, and plates are returned to the incubator. Final assay DMSO concentration is 0.5%. After 72 hr, 8 ul CellTiterBlue (Promega) is added to each well. After 3 hr, fluorescence (Ex550/Em590) is determined on the Victor Plate Reader (Perkin Elmer). Assay range is determined by DMSO control (100% viability) and 100 uM tamoxifen (0% viability). GI50 values are calculated using Graphpad Prism.

[1] = tested on: Ishikawa (K-Ras wild-type) cells; assay: 72 hr cell viability (CellTiterBlue); type: cell-based; settings: GI50, 72 hr
Protocol: as §5, §6

Panc1 (G12D) cells = assay: 72 hr cell viability (CellTiterBlue); type: cell-based; settings: GI50, 72 hr
Protocol: as §5, §6

HCT116 (G13D) cells = assay: 72 hr cell viability (CellTiterBlue); type: cell-based; settings: GI50, 72 hr
Protocol: as §5, §6

[2] = tested on: Erk phosphorylation in Panc1 (G12D) cells; assay: In-Cell Western Erk phosphorylation; type: cell-based; settings: EC50, one hour treatment; read-out: In-Cell Western Erk phosporylation Panc1 (G12D)
Protocol: (§7) In-cell phosphorylation assays for Erk and Akt were performed on various of the compounds and exemplary results are shown in Table 3 below using […] and Panc10.05 cell lines for G12D K-ras mutants.
(§8) Cells are seeded in complete medium into black sided, clear-bottom 384-well microplates at 3000 cells/[…]/well. Plates are returned to 37° C. CO2 incubator for 18 hr. Drug is made as 200× in DMSO and diluted into medium to 10×. To each well is added 4 ul 10× test article or controls, and plates are returned to the incubator. Final assay DMSO concentration is 0.5%. After one hour, cells are fixed in formaldehyde, rinsed & permeabilized with triton X-100, and blocked with BSA/Goat serum blocking solution. Primary phospho-Akt and phospho-ERK antibodies are added and plates are incubated overnight at 4° C. Plates are rinsed with Tween-20 wash buffer and secondary antibody (Goat anti-rabbit, Thermofisher) is added. After 2 hours, plates are rinsed in Tween-20 wash buffer, and then PBS. Plates are imaged on the Celigo (Nexcelom) and cellular fluorescence is quantitated. Full inhibition of phospho-Akt is achieved with 1 uM BEZ235 (Sellekchem), while full inhibition of phospho-ERK is achieved with 1 uM MEK Inhibitor II Calbiochem). EC50 values are calculated using Graphpad Prism.

[3] = tested on: Erk phosphorylation in Panc10.05 (G12D) cells; assay: In-Cell Western Erk phosphorylation; type: cell-based; settings: EC50, one hour treatment; read-out: In-Cell Western Erk phosporylation Panc10.05 (G12D)
Protocol: as §7, §8

[4] = tested on: Akt phosphorylation in Panc1 (G12D) cells; assay: In-Cell Western Akt phosphorylation; type: cell-based; settings: EC50, one hour treatment; read-out: In-Cell Western Akt phosporylation Panc1 (G12D)
Protocol: as §7, §8

[5] = tested on: Akt phosphorylation in Panc10.05 (G12D) cells; assay: In-Cell Western Akt phosphorylation; type: cell-based; settings: EC50, one hour treatment; read-out: In-Cell Western Akt phosporylation Panc10.05 (G12D)
Protocol: as §7, §8

K-ras G12V = K-ras G12V (Homo sapiens, UniProt P01116, G12V); assay: G-LISA Ras activation assay, 293H cells transfected with G12V mutant; type: cell-based; settings: 1 hour treatment
Protocol: as §1, §2
as §1, with “In still further experiments, the inventors tested selected compounds in a G-LISA assay to compare IC50 values for wild-type and various mutant K-Ras (G12D, G12V) using the following general protocol: 293H” for “293H”

K-ras wild-type (GTP) = K-ras wild-type (GTP) (Homo sapiens, UniProt P01116); assay: SPR assay (surface plasmon resonance); type: binding; settings: 25° C., 8% DMSO
Protocol: as §3, §4

[6] = Table 1, G-LISA, 293H transfected, read-out: IC50 (μM) G12D
[7] = Table 5, IC50, 293H transfected, read-out: G-LISA (G12D)
[8] = Table 5, IC50, 293H transfected, read-out: G-LISA (wild type)
[9] = Table 1, G-LISA, 293H transfected, read-out: IC50 (μM) Wild-type
[10] = Table 1, G-LISA, 293H transfected, read-out: IC50 (μM) G12V

Cc1nc(C)c(C(=O)Nc2nc(-c3ccc4c(c3)CCC(=O)O4)cs2)s1 [Compound 4664]
IC50 (K-ras G12D; [6]): > 25 µM | IC50 (K-ras G12D; [7]): > 25 µM | Kd (K-ras G12D (GTP)): 4.8 µM | SPR Assay G12D (GTP) Rmax (K-ras G12D (GTP)): Rmax = 8.73 | Kd (K-ras G12V (GTP)): 36.8 µM | SPR Assay G12V (GTP) Rmax (K-ras G12V (GTP)): Rmax = 143 ± 1

O=C1CCc2cc(-c3csc(NC(=O)c4scnc4-c4ccccc4)n3)ccc2N1 [Compound 4800]
IC50 (K-ras G12D; [6]): > 25 µM | IC50 (K-ras G12D; [7]): > 25 µM | Kd (K-ras G12D (GTP)): 27.2 µM | SPR Assay G12D (GTP) Rmax (K-ras G12D (GTP)): Rmax = 389 ± 1 | Kd (K-ras G12V (GTP)): 15.2 µM | SPR Assay G12V (GTP) Rmax (K-ras G12V (GTP)): Rmax = 57.1 ± 0.2

Cc1nc(C)c(C(=O)Nc2nc(-c3ccc4c(c3)CCC(=O)N4)cs2)[nH]1 [Compound 4805]
IC50 (K-Ras wild-type; [8]): 7 µM | IC50 (K-ras G12D; [6]): > 25 µM | IC50 (K-ras G12D; [7]): 187 µM | Kd (K-ras G12D (GTP)): 570 µM | SPR Assay G12D (GTP) Rmax (K-ras G12D (GTP)): Rmax = 219 ± 5 | Kd (K-ras G12V (GTP)): 12.1 µM | SPR Assay G12V (GTP) Rmax (K-ras G12V (GTP)): Rmax = 100.3 ± 0.2

Cc1nc(-n2ccnc2)sc1C(=O)Nc1nc(-c2ccc3c(c2)CCC(=O)N3)cs1 [Compound 4894]
IC50 (Panc10.05 (G12D) cells): ≥ 25 µM | IC50 [1]: ≥ 25 µM | IC50 (Panc1 (G12D) cells): ≥ 25 µM | IC50 (HCT116 (G13D) cells): ≥ 25 µM | EC50 [2]: > 25 µM | EC50 [3]: > 25 µM | EC50 [4]: > 25 µM | EC50 [5]: > 25 µM

Cc1nc(Cc2ccccn2)sc1C(=O)Nc1nc(-c2ccc3c(c2)CCC(=O)N3)cs1 [Compound 4893]
IC50 (Panc10.05 (G12D) cells): ≥ 25 µM | IC50 [1]: ≥ 25 µM | IC50 (Panc1 (G12D) cells): ≥ 25 µM | IC50 (HCT116 (G13D) cells): ≥ 25 µM | EC50 [2]: > 25 µM | EC50 [3]: > 25 µM | EC50 [4]: > 25 µM | EC50 [5]: > 25 µM

CCc1nc(C)c(C(=O)Nc2nc(-c3ccc4c(c3)CCC(=O)N4)cs2)s1 [Compound 4891]
IC50 (K-Ras wild-type; [9]): 11.5 µM | IC50 (K-ras G12V; [10]): 9.3 µM | IC50 (Panc10.05 (G12D) cells): 4 µM | IC50 [1]: 12 µM | IC50 (Panc1 (G12D) cells): 11 µM | IC50 (HCT116 (G13D) cells): 13 µM | EC50 [2]: 2 µM | EC50 [3]: 2 µM | IC50 (K-ras G12D; [6]): 5 µM | EC50 [4]: 7 µM | EC50 [5]: 3 µM

Cc1nc(C)c(C(=O)Nc2nc(-c3ccc4c(c3)CCC(=O)N4Cc3ccccc3)cs2)s1 [Compound 4888]
IC50 (K-Ras wild-type; [9]): 11.3 µM | IC50 (K-Ras wild-type; [8]): 11.3 µM | IC50 (K-ras G12V; [10]): 14.5 µM | IC50 (K-ras G12V; Table 5, IC50, 293H transfected, read-out: G-LISA (G12V)): 14.5 µM | IC50 (Panc10.05 (G12D) cells): 4 µM | IC50 [1]: 5 µM | IC50 (Panc1 (G12D) cells): 9 µM | IC50 (HCT116 (G13D) cells): 7 µM | EC50 [2]: 4 µM | EC50 [3]: 2 µM | IC50 (K-ras G12D; [6]): 6 µM | IC50 (K-ras G12D; [7]): 6 µM | EC50 [4]: 5 µM | EC50 [5]: 3 µM

Cc1nc(N2CCOCC2)sc1C(=O)Nc1nc(-c2ccc3c(c2)CCC(=O)N3)cs1 [Compound 4895]
IC50 (Panc10.05 (G12D) cells): ≥ 25 µM | IC50 [1]: ≥ 25 µM | IC50 (Panc1 (G12D) cells): ≥ 25 µM | IC50 (HCT116 (G13D) cells): ≥ 25 µM | EC50 [2]: > 25 µM | EC50 [3]: > 25 µM | EC50 [4]: > 25 µM | EC50 [5]: > 25 µM

Cc1nc(C2CCOC2)sc1C(=O)Nc1nc(-c2ccc3c(c2)CCC(=O)N3)cs1 (centres unmarked) [Compound 4892]
IC50 (Panc10.05 (G12D) cells): 6 µM | IC50 [1]: 14 µM | IC50 (Panc1 (G12D) cells): 17 µM | IC50 (HCT116 (G13D) cells): 14 µM | EC50 [2]: 5 µM | EC50 [3]: 2 µM | IC50 (K-ras G12D; [6]): 6.5 µM | EC50 [4]: 12 µM | EC50 [5]: 6 µM

Cc1nc(C)c(C(=O)Nc2nc(-c3ccc4c(c3)CC(=O)N4)cs2)s1 [Compound 4639]
IC50 (K-ras G12D; [6]): > 25 µM | IC50 (K-ras G12D; [7]): > 25 µM | Kd (K-ras wild-type (GTP)): 6.4 µM | SPR Assay Wild-type (GTP) Rmax (K-ras wild-type (GTP)): Rmax = 14.6 ± 0.1

Cc1nc(C)c(C(=O)N(Cc2ccccc2)c2nc(-c3ccc4c(c3)CCC(=O)N4Cc3ccccc3)cs2)s1 [Compound 4889]
IC50 (Panc10.05 (G12D) cells): ≥ 25 µM | IC50 [1]: 14 µM | IC50 (Panc1 (G12D) cells): ≥ 25 µM | IC50 (HCT116 (G13D) cells): 21 µM | EC50 [2]: > 25 µM | EC50 [3]: > 25 µM | EC50 [4]: > 25 µM | EC50 [5]: > 25 µM
